Among the data in patent US12037344B2, “NLRP3 modulators” (INNATE TUMOR IMMUNITY, INC., priority 2018, dated 2024) are EC50 values, retold here.

For orientation: EC50 means the midpoint of the concentration-response curve.

A value given as a limit tells only on which side of the number the result lay.

In one assay the test system is THP-1 cells. The assay is described as follows: Measurement of IL-1β production, hTRF protocol (second alternative procedure), THP-1 cells. It counts as cell-based, human. The following applies: Homo sapiens, THP-1, IL-1β production, human; read-out: NLRP3 hILIB EC50. The essentials:
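Compounds, dilution series starting at a final 10 μM, were incubated 2 hours at 37° C with PMA-differentiated THP-1 cells (50 ng/ml overnight; 50,000 cells/well, 2% FBS RPMI). Released IL-1β quantified in supernatant by hTRF kit with 1:40 antibody dilution, 4° C overnight, 665/615 nm ratio.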

The target of a further assay is T1, TLR8 (Homo sapiens, UniProt Q9NR97).
T1 construct: human HEK-Blue cells co-expressing a TLR7 or TLR8 gene
T1 sequence (Q9NR97 27-1041): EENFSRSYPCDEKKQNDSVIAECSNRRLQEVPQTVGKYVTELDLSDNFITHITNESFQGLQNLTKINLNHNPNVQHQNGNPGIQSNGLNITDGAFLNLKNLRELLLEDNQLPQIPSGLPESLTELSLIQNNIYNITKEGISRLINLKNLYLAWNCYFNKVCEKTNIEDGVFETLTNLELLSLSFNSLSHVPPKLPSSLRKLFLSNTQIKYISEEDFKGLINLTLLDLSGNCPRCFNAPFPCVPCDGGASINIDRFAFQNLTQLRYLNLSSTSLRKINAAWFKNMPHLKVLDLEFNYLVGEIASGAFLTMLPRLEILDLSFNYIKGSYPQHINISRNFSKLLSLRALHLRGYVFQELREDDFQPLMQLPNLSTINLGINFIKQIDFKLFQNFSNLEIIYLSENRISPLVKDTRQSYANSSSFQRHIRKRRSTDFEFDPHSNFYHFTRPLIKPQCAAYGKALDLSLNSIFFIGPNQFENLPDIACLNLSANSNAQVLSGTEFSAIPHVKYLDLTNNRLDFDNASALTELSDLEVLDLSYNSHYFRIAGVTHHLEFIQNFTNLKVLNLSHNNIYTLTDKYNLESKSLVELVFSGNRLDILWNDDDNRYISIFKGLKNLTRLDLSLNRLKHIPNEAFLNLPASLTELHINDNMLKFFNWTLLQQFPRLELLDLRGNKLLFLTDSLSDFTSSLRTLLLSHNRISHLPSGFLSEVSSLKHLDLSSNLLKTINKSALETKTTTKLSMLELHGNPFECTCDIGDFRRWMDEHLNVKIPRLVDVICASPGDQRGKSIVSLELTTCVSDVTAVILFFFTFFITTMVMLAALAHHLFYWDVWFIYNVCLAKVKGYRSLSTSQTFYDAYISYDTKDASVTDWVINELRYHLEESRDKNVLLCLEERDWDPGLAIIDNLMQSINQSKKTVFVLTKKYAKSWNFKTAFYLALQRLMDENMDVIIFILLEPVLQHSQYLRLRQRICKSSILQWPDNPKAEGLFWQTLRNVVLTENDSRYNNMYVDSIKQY
The assay is described as follows: In vitro human TLR8 binding reporter assay (HEK-Blue, NF-kB/AP1-inducible SEAP). As to conditions: activity range class, read-out: TLR8 Agonist EC50. It counts as cell-based. A digest of the protocol: (§1)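 HEK-Blue cells expressing human TLR7 or TLR8 with NF-kB/AP1-inducible SEAP reporter, plated 24 h, then compound-treated 18 h at 37° C, 5% CO2. EC50 normalized to 100% Ymax set by 50 μM reference standard.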
Background: A reporter such as luciferase makes a cellular process visible.

Another assay has as its target T2, TLR7 (Homo sapiens, UniProt Q9NYK1).
T2 construct: human HEK-Blue cells co-expressing a TLR7 or TLR8 gene
T2 sequence (Q9NYK1 27-1049): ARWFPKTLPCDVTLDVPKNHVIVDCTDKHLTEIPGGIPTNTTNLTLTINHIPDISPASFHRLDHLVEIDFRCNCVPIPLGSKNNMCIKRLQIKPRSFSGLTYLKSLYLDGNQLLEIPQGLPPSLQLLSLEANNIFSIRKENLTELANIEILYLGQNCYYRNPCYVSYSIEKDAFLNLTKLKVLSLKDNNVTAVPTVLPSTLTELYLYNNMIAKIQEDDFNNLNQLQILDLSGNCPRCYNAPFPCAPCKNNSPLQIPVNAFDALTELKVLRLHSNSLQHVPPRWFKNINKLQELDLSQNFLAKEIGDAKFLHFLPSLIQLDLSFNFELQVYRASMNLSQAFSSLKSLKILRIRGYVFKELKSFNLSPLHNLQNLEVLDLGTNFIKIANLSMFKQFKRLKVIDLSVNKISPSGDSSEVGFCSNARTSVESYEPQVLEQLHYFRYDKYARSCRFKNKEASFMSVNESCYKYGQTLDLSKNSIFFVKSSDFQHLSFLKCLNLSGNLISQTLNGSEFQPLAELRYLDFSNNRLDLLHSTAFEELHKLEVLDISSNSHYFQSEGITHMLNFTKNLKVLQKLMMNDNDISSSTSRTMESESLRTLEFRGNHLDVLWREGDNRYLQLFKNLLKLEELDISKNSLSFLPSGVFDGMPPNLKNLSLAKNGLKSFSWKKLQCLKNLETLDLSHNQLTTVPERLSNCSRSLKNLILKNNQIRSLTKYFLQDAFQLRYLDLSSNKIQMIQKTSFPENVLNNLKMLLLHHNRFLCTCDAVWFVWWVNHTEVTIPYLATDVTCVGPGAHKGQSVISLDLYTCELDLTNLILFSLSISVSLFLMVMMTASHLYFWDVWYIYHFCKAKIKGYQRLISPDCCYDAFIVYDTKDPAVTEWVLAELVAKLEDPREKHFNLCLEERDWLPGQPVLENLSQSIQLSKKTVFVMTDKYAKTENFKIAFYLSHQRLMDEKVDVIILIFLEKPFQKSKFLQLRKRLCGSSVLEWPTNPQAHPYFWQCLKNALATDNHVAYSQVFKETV
The assay is described as follows: In vitro human TLR7 binding reporter assay (HEK-Blue, NF-kB/AP1-inducible SEAP). It counts as cell-based. The following applies: activity range class, read-out: TLR7 Agonist EC50. A digest of the protocol:
as §1

Turning to `Nc1nc2cc(-c3cc[nH]n3)ccc2c2cn(CCNC(=O)c3cccc(F)c3)nc12` [Example 77], the EC50 in the assay on THP-1 cells is 1.68 µM; at TLR8, > 100 µM; at TLR7, > 100 µM.
In the case of `Cc1cc(Nc2cccc(C(=O)NCCn3cc4c(n3)c(N)nc3cc(-c5cc[nH]n5)ccc34)n2)n(C)n1` [Example 78], the results for the 50% effective concentration (EC50) with THP-1 cells, at TLR8 and on TLR7 were 4.71 µM, > 100 µM and > 100 µM, respectively.
As to `COc1cccc(C(=O)NCCn2cc3c(n2)c(N)nc2cc(-c4cc[nH]n4)ccc23)c1` [Example 79], the concentration giving a half-maximal response (EC50) in the assay on THP-1 cells was 1.59 µM; on TLR8 it was > 100 µM; on TLR7, > 100 µM.
As to `CC(C)(C)OC(=O)Nc1nc(C(=O)NCCn2cc3c(n2)c(N)nc2cc(-c4cc[nH]n4)ccc23)cs1` [Example 80], the EC50 in the assay on THP-1 cells is 2.07 µM; on TLR8, 20 to 100 µM; at TLR7, > 100 µM.
As to `COc1ccccc1C(=O)NCCn1cc2c(n1)c(N)nc1cc(-c3cc[nH]n3)ccc12` [Example 81], the values for the EC50 in the assay on THP-1 cells, on TLR8 and on TLR7 were 0.68 µM, 20 to 100 µM and > 100 µM, respectively.
On the same counts, the results for `Nc1nc2cc(-c3cc[nH]n3)ccc2c2cn(CCNC(=O)c3cccc(Cl)c3)nc12` [Example 82] are 0.73 µM, 20 to 100 µM and > 100 µM.
Taken in the same sequence, the figures for `Nc1nc2cc(-c3cc[nH]n3)ccc2c2cn(CCNC(=O)c3cnccn3)nc12` [Example 83] were 0.36 µM, > 100 µM and > 100 µM.
On the same counts, the results for `Nc1nc2cc(-c3cc[nH]n3)ccc2c2cn(CCNC(=O)c3cnco3)nc12` [Example 84] are 1.79 µM, > 100 µM and > 100 µM.
On to `Nc1nc2cc(-c3cc[nH]n3)ccc2c2cn(CCNC(=O)c3ncc(Cl)cc3F)nc12` [Example 85], for which the results for the EC50 in the assay with THP-1 cells, at TLR8 and at TLR7 were 0.4 µM, 20 to 100 µM and 20 to 100 µM, respectively.
Turning to `Nc1nc2cc(-c3cc[nH]n3)ccc2c2cn(CCNC(=O)c3csc(-c4ccncc4)n3)nc12` [Example 86], the EC50 was 2.77 µM in the assay on THP-1 cells, > 100 µM on TLR8 and > 100 µM on TLR7.
For `Cn1cnc(C(=O)NCCn2cc3c(n2)c(N)nc2cc(-c4cc[nH]n4)ccc23)c1` [Example 87], the 50% effective concentration (EC50) in the assay on THP-1 cells is 1.03 µM; on TLR8, > 100 µM; at TLR7 it was > 100 µM.
`Nc1nc2cc(-c3cc[nH]n3)ccc2c2cn(CCNC(=O)c3csc(Cl)n3)nc12` [Example 88]: the concentration for a half-maximal effect (EC50) was 0.13 µM in the assay on THP-1 cells, 20 to 100 µM on TLR8 and 20 to 100 µM at TLR7.
For the compound `Nc1nc2cc(-c3cc[nH]n3)ccc2c2cn(CCNC(=O)c3ccc(F)c(Cl)n3)nc12` [Example 89], the figures for the EC50 with THP-1 cells, on TLR8 and on TLR7 were 0.12 µM, 1 to 20 µM and > 100 µM, respectively.
Taken in the same sequence, the figures for `Nc1nc2cc(-c3cc[nH]n3)ccc2c2cn(CCNC(=O)c3cccc(C(F)(F)F)n3)nc12` [Example 90] were 0.08 µM, 20 to 100 µM and 20 to 100 µM.
For `Nc1nc2cc(-c3cc[nH]n3)ccc2c2cn(CCNC(=O)c3ncc(C(F)(F)F)cc3F)nc12` [Example 91], the EC50 in the assay on THP-1 cells was 1.17 µM; on TLR8 it was 20 to 100 µM; at TLR7 it was > 100 µM.
On to `Nc1nc2cc(-c3cc[nH]n3)ccc2c2cn(CCNC(=O)c3ncccc3Cl)nc12` [Example 92], for which the EC50 with THP-1 cells was 1.07 µM; at TLR8, > 100 µM; at TLR7 it was > 100 µM.
On to `Nc1nc2cc(-c3cc[nH]n3)ccc2c2cn(CCNC(=O)C3CCCCO3)nc12` (stereo not drawn) [Example 93], for which the EC50 is 0.63 µM in the assay on THP-1 cells, > 100 µM at TLR8 and > 100 µM on TLR7.
Regarding `Cc1ccc(C(=O)NCCn2cc3c(n2)c(N)nc2cc(-c4cc[nH]n4)ccc23)nc1` [Example 94], the concentration giving a half-maximal response (EC50) was 0.21 µM in the assay on THP-1 cells, 20 to 100 µM on TLR8 and > 100 µM on TLR7.
Taken in the same sequence, the figures for `Nc1nc2cc(-c3cc[nH]n3)ccc2c2cn(CCNC(=O)c3cscn3)nc12` [Example 95] were 0.09 µM, > 100 µM and > 100 µM.
Turning to `Cc1csc(C(=O)NCCn2cc3c(n2)c(N)nc2cc(-c4cc[nH]n4)ccc23)n1` [Example 96], the figures for the concentration for a half-maximal effect (EC50) in the assay on THP-1 cells, on TLR8 and on TLR7 were 0.31 µM, 20 to 100 µM and > 100 µM, respectively.
Regarding `Nc1nc2cc(-c3cc[nH]n3)ccc2c2cn(CCNC(=O)c3nccs3)nc12` [Example 97], the concentration giving a half-maximal response (EC50) with THP-1 cells is 0.23 µM; at TLR8, > 100 µM; on TLR7, > 100 µM.
Regarding `Nc1nc2cc(-c3cc[nH]n3)ccc2c2cn(CCNC(=O)c3cnc4ccccn4c3=O)nc12` [Example 98], the concentration for a half-maximal effect (EC50) in the assay on THP-1 cells was 1.59 µM; on TLR8, > 100 µM; at TLR7, > 100 µM.
With `Cn1ccnc1C(=O)NCCn1cc2c(n1)c(N)nc1cc(-c3cc[nH]n3)ccc12` [Example 99], the EC50 was 0.46 µM in the assay with THP-1 cells, > 100 µM on TLR8 and 20 to 100 µM at TLR7.
Consider `Cn1cnc2c(C(=O)NCCn3cc4c(n3)c(N)nc3cc(-c5cc[nH]n5)ccc34)cccc21` [Example 100], for which the half-maximal effective concentration (EC50) in the assay on THP-1 cells is 1.67 µM; on TLR8 it was > 100 µM; on TLR7 it was > 100 µM.
As for `Nc1nc2cc(-c3cc[nH]n3)ccc2c2cn(CCNC(=O)c3cnn4cccnc34)nc12` [Example 101], the 50% effective concentration (EC50) was 2.39 µM with THP-1 cells, > 100 µM on TLR8 and > 100 µM on TLR7.
Regarding `Nc1nc2cc(-c3cc[nH]n3)ccc2c2cn(CCN3Cc4ccccc4C3=O)nc12` [Example 102, 2-{2-[4-amino-7-(1H-pyrazol-3-yl)-2H-pyrazolo[3,4-c]quinolin-2-yl]ethyl}-2,3-dihydro-1H-isoindol-1-one], the concentration giving a half-maximal response (EC50) with THP-1 cells was 0.41 µM; at TLR8, 20 to 100 µM; at TLR7, 20 to 100 µM.
For the compound `Nc1nc2cc(-c3cc[nH]n3)ccc2c2cn(CCN3Cc4ccc(F)cc4C3=O)nc12` [Example 103, 2-{2-[4-amino-7-(1H-pyrazol-3-yl)-2H-pyrazolo[3,4-c]quinolin-2-yl]ethyl}-6-fluoro-2,3-dihydro-1H-isoindol-1-one], the EC50 was 0.65 µM with THP-1 cells, > 100 µM on TLR8 and > 100 µM on TLR7.
